Here are results for 33 substances from patent publication US11591604B2, “Gene expression in Bacteroides” (Massachusetts Institute of Technology, priority 2015, dated 2023).

The series has as its system NanoLuc. Nature of the series: NanoLuc luciferase reporter expression from constitutive promoters and RBSs integrated with pNBU2. It counts as cell-based, B. thetaiotaomicron. The settings on record: for Average Luminescence (RLU/CFU): RBS combined with promoter PBT1311, NanoLuc reporter, three biological replicates. The text has this:
FIGS. 1A-1G. Genetic parts to control expression in B. thetaiotaomicron. (FIG. 1A) The ranges of gene expression are shown for the different gene regulation systems provided herein. (FIG. 1B) IntN2 catalyzes stable integration of pNBU2-based expression constructs into one of two attBT2 sites in the B. thetaiotaomicron genome. The two attBT2 sites (attBT2-1 at nucleotide (nt) 6,217,227 and attBT2-2 at nt 6,138,320) are in the 3′ ends of tRNA^Ser genes (BT_t71 and BT_t70, respectively). (FIG. 1C) Constitutive promoters and ribosome binding sites for the construction of gene expression libraries. The putative −33 and −7 regions of the PBT1311 promoter, the Shine-Delgarno sequence, and the start codon are indicated by black boxes. Numbers below the black boxes represent nucleotide locations relative the PBT1311 transcription start site. The 26 nt sequences introduced in the PAM promoters are shown (see also FIGS. 6A-6B). Numbers at the edges of the boxes indicate the PBT1311 nucleotides replaced or the insertion site within the promoter. The location of residues randomized in the rpiL* RBS library are indicated with gray arrows (for library A: nt −14, −13, −12; for library B: nt −21, −18, −15; and for library C: nt −17, −16, −11; nt numbering is relative to the translation start site). (FIG. 1D) Activity was measured for a set of constitutive promoters and their cognate RBSs. Furthermore, a set of constitutive promoters (PBT1311, PAM1, PAM2, PAM3, PAM4) was combined with RBSs of varying strengths. Gene expression was measured using a luciferase reporter (NanoLuc). (FIG. 1E) Three large RBS libraries were constructed and combined with promoter PBT1311 to span 10^3-fold in gene expression. For reference, the parent rpiL* RBS is indicated with a black arrow. For D and E, error bars represent the standard deviation of three independent biological replicates made on separate days. (FIG. 1F) The strength of each RBS was compared to the predicted free energy of folding for the mRNA (ΔGfold,). (FIG. 1G) Strong (SEQ ID NO: 210) and weak (SEQ ID NO: 211) consensus sequences for the rpiL* −21 to −11 RBS region targeted by mutagenesis (residue locations are stated relative to the translation start site) are provided. Frequency logos were generated for the 11 strongest and 11 weakest RBSs by comparing the frequency of each nucleotide at each position in that group with the frequency of that nucleotide in that position in the full library. Position −20 and −19 were not randomized and are thus are not shown in the frequency logos.
All genetic parts in this study were characterized using the integration vector pNBU2 to ensure genetic stability of the constructs (FIG. 1B). The pNBU2 plasmid encodes the intN2 tyrosine integrase, which mediates sequence-specific recombination between the attN site of pNBU2 and one of two attBT sites located in the 3′ ends of the two tRNA^Ser genes, BT_t70 and BT_t71, on the B. thetaiotaomicron chromosome (FIG. 1B). Insertion of the pNBU2 plasmid inactivates the tRNA^Ser gene, and simultaneous insertion into both BT_t70 and BT_t71 is unlikely due to the essentiality of tRNA^Ser. pNBU2-based vectors have been used for single-copy complementation in B. thetaiotaomicron in in vitro studies (Koropatkin N M et al. Nat. Rev. Microbiol. 10:323-35, 2012) and in vivo mouse models (Martens E C et al. Cell Host Microbe 4:447-57, 2008).
B. thetaiotaomicron genetic parts were characterized with NanoLuc luciferase (Hall M P et al. ACS Chem. Biol. 7:1848-1857, 2012), which is a small (19 kDa) modified shrimp luciferase. Efforts to use members of the green fluorescent protein family and a FMN-based fluorescent reporter were not successful. NanoLuc oxidizes the exogenously-added substrate furimazine to produce glow-type bioluminescence (Emax=460 nm) with a signal half-life of 2 hr. […]
Background: In a reporter assay the amount or activity of a reporter protein is the signal.

As to “A45: RBS, SEQ ID NO: 137 (DNA TCCCGCATTTTAAAATAAAATAAATTATTCGTTTACTTAAACGAAT; chemistry not fully specified)”, the “Average Luminescence (RLU/CFU)” value is 0.0005331 RLU/CFU. Same read-out and setting: the same measure for “C42: RBS, SEQ ID NO: 119 (DNA TCCCGCATTTTAAAATAAAATAAATTATTCTTTTAGTTAAACGAAT; chemistry not fully specified)”: 0.002801 RLU/CFU; for “C35: RBS, SEQ ID NO: 99 (DNA TCCCGCATTTTAAAATAAAATAAATTATTCCTTTAATTAAACGAAT; chemistry not fully specified)”: 0.005815 RLU/CFU; for “B11: RBS, SEQ ID NO: 18 (DNA TCCCGCATTTTAAAATAAAATAAATAATGTAATTAATTAAACGAAT; chemistry not fully specified)”: 0.03308 RLU/CFU. The same measure, in the same setting: the same measure for “B16: RBS, SEQ ID NO: 28 (DNA TCCCGCATTTTAAAATAAAATAAATTATATACTTAATTAAACGAAT; chemistry not fully specified)”: 0.02683 RLU/CFU; for “B37: RBS, SEQ ID NO: 121 (DNA TCCCGCATTTTAAAATAAAATAAATCATATATTTAATTAAACGAAT; chemistry not fully specified)”: 0.002567 RLU/CFU; for “B19: RBS, SEQ ID NO: 42 (DNA TCCCGCATTTTAAAATAAAATAAATTATGTATTTAATTAAACGAAT; chemistry not fully specified)”: 0.02048 RLU/CFU. As to “C46: RBS, SEQ ID NO: 125 (DNA TCCCGCATTTTAAAATAAAATAAATTATTTGTTTAGTTAAACGAAT; chemistry not fully specified)”, the “Average Luminescence (RLU/CFU)” value is 0.001945 RLU/CFU. As to “C37: RBS, SEQ ID NO: 102 (DNA TCCCGCATTTTAAAATAAAATAAATTATTGGTTTAGTTAAACGAAT; chemistry not fully specified)”, the “Average Luminescence (RLU/CFU)” value worked out at 0.005598 RLU/CFU. Turning to “A19: RBS, SEQ ID NO: 70 (DNA TCCCGCATTTTAAAATAAAATAAATTATTTTTTTATTTAAACGAAT; chemistry not fully specified)”, the “Average Luminescence (RLU/CFU)” value stood at 0.01206 RLU/CFU. Same read-out and setting: the value for “C29: RBS, SEQ ID NO: 86 (DNA TCCCGCATTTTAAAATAAAATAAATTATTTTTTTATTTAAACGAAT; chemistry not fully specified)” was 0.008233 RLU/CFU.

Turning to “B39: RBS, SEQ ID NO: 133 (DNA TCCCGCATTTTAAAATAAAATAAATCATCTAGTTAATTAAACGAAT; chemistry not fully specified)”, the “Average Luminescence (RLU/CFU)” value was found to be 0.001255 RLU/CFU.

For the substance “C49: RBS, SEQ ID NO: 129 (DNA TCCCGCATTTTAAAATAAAATAAATTATTGTTTTATTTAAACGAAT; chemistry not fully specified)”, the “Average Luminescence (RLU/CFU)” value amounted to 0.001598 RLU/CFU.

As to “C19: RBS, SEQ ID NO: 48 (DNA TCCCGCATTTTAAAATAAAATAAATTATTGCTTTAGTTAAACGAAT; chemistry not fully specified)”, the “Average Luminescence (RLU/CFU)” value stood at 0.01835 RLU/CFU. Same read-out and setting: the same measure for “A28: RBS, SEQ ID NO: 94 (DNA TCCCGCATTTTAAAATAAAATAAATTATTCTTTTATTTAAACGAAT; chemistry not fully specified)”: 0.006884 RLU/CFU; for “A22: RBS, SEQ ID NO: 78 (DNA TCCCGCATTTTAAAATAAAATAAATTATTGCTTTATTTAAACGAAT; chemistry not fully specified)”: 0.009586 RLU/CFU; for “A12: RBS, SEQ ID NO: 56 (DNA TCCCGCATTTTAAAATAAAATAAATTATTGTTTTAATTAAACGAAT; chemistry not fully specified)”: 0.01552 RLU/CFU. Still for that read-out and setting: the value for “A3: RBS, SEQ ID NO: 24 (DNA TCCCGCATTTTAAAATAAAATAAATTATTAGTTTAGTTAAACGAAT; chemistry not fully specified)” was 0.02867 RLU/CFU. On the same count and under the same terms, the same measure for “B36: RBS, SEQ ID NO: 112 (DNA TCCCGCATTTTAAAATAAAATAAATCATATAATTAATTAAACGAAT; chemistry not fully specified)”: 0.004282 RLU/CFU; for “C7: RBS, SEQ ID NO: 20 (DNA TCCCGCATTTTAAAATAAAATAAATTATTAATTTACTTAAACGAAT; chemistry not fully specified)”: 0.03249 RLU/CFU; for “C48: RBS, SEQ ID NO: 128 (DNA TCCCGCATTTTAAAATAAAATAAATTATTCCTTTAGTTAAACGAAT; chemistry not fully specified)”: 0.001758 RLU/CFU.

As for “A8: RBS, SEQ ID NO: 44 (DNA TCCCGCATTTTAAAATAAAATAAATTATTAGTTTATTTAAACGAAT; chemistry not fully specified)”, the “Average Luminescence (RLU/CFU)” value was found to be 0.02026 RLU/CFU. With “B7: RBS, SEQ ID NO: 8 (DNA TCCCGCATTTTAAAATAAAATAAATAATCTACTTAATTAAACGAAT; chemistry not fully specified)”, the “Average Luminescence (RLU/CFU)” value came out at 0.04704 RLU/CFU. Turning to “C43: RBS, SEQ ID NO: 120 (DNA TCCCGCATTTTAAAATAAAATAAATTATTTCTTTAGTTAAACGAAT; chemistry not fully specified)”, the “Average Luminescence (RLU/CFU)” value worked out at 0.00264 RLU/CFU. On to “A43: RBS, SEQ ID NO: 131 (DNA TCCCGCATTTTAAAATAAAATAAATTATTCGTTTAATTAAACGAAT; chemistry not fully specified)”, for which the “Average Luminescence (RLU/CFU)” value stood at 0.001461 RLU/CFU. On the same count and under the same terms, the same measure for “C18: RBS, SEQ ID NO: 47 (DNA TCCCGCATTTTAAAATAAAATAAATTATTGTTTTACTTAAACGAAT; chemistry not fully specified)”: 0.01851 RLU/CFU. Turning to “A26: RBS, SEQ ID NO: 87 (DNA TCCCGCATTTTAAAATAAAATAAATTATTACTTTATTTAAACGAAT; chemistry not fully specified)”, the “Average Luminescence (RLU/CFU)” value turned out to be 0.008113 RLU/CFU. On to “B1: RBS, SEQ ID NO: 1 (DNA TCCCGCATTTTAAAATAAAATAAATTATTCGTTTAGTTAAACGAAT; chemistry not fully specified)”, for which the “Average Luminescence (RLU/CFU)” value came to 0.09025 RLU/CFU. For the setting “set of 8 RBSs, under control of PBT1311, NanoLuc reporter”, the “Expression Level (RLU/CFU)” value turned out to be 9.02E-02 RLU/CFU.

Turning to “A24: RBS, SEQ ID NO: 83 (DNA TCCCGCATTTTAAAATAAAATAAATTATTCTTTTACTTAAACGAAT; chemistry not fully specified)”, the “Average Luminescence (RLU/CFU)” value is recorded as 0.009158 RLU/CFU.

For the substance “B38: RBS, SEQ ID NO: 127 (DNA TCCCGCATTTTAAAATAAAATAAATCATTTAGTTAATTAAACGAAT; chemistry not fully specified)”, the “Average Luminescence (RLU/CFU)” value worked out at 0.001793 RLU/CFU. The same measure, in the same setting: the same measure for “C11: RBS, SEQ ID NO: 36 (DNA TCCCGCATTTTAAAATAAAATAAATTATTTTTTTACTTAAACGAAT; chemistry not fully specified)”: 0.02223 RLU/CFU. Same read-out and setting: the same measure for “C12: RBS, SEQ ID NO: 37 (DNA TCCCGCATTTTAAAATAAAATAAATTATTAGTTTAGTTAAACGAAT; chemistry not fully specified)”: 0.02151 RLU/CFU; for “C21: RBS, SEQ ID NO: 54 (DNA TCCCGCATTTTAAAATAAAATAAATTATTGGTTTAATTAAACGAAT; chemistry not fully specified)”: 0.01602 RLU/CFU.
